{"source": "patent US12060588B2", "about": "“Methods of editing DNA methylation” (Whitehead Institute for Biomedical Research, priority 2016, dated 2024)", "tested_on": "RHOXF2 promoter region", "assay": "Comparison of dCas9- and TALE-based methylation editing, RHOXF2 promoter, bisulfite sequencing in HEK293T cells", "type": "cell-based", "procedure": "FIGS. 10A-10G depict comparison of TALE- and dCas9-based methylation editing. […] Transfection positive cell populations (cherry+) or (GFP+) were FACS sorted 48-hour post-transfection. Methylation levels of each individual CpG in the p16 promoter region were analyzed by bisulfite sequencing. Shown is the mean percentage±SD of two biological replicates with a total of 34 single colonies sequenced for dCas9-Dnmt3a and 31 single colonies sequenced for TALE-Dnmt3a. Red arrow indicates the position of p16 target gRNA, and purple arrow indicates the binding site for TALE-Dnmt3a. FIG. 10B depicts HEK293T cells were co-transfected with dCas9-Tet1 and one RHOXF2 target gRNA (with puro cassette) or TALE-Tet1 with a puro cassette expressing plasmid. Puromycin (2 ug/ml) was added to the culture medium to select for transfection positive cells. Cells were harvested after 2-day selection for analysis of methylation levels for individual CpGs in the RHOXF2 promoter region by bisulfite sequencing. Shown is the mean percentage±SD of two biological replicates with a total of 34 single colonies sequenced for dCas9-Tet1 and 38 single colonies sequenced for TALE-Tet1. Red arrow indicates the position of RHOXF2 target gRNA, and purple arrow indicates the binding site for […]. […]"}
{"substance": "dCas9-Tet1: catalytically inactive Cas9 (dCas9) fused through NLS to the Tet1 catalytic domain, SEQ ID NO: 159; lentivirally expressed with gRNAs", "values": [{"measurement": "region (effective range) of methylation decrease in the RHOXF2 promoter", "setting": "CpGs with change of methylation greater than 10%", "result": 150, "unit": "bp"}, {"measurement": "average decrease of methylation in the RHOXF2 promoter", "setting": "one single gRNA or TALE at the same site, 2-day puromycin selection", "result": 28, "unit": "%"}]}
